The supplement of paper PMC10307832

Columns and labels:
Test in all cases: relative viability (nuclei count vs DMSO), 5 days (fraction); higher = more cells survive
Idelalisib + Bortezomib = compound: CC[C@H](Nc1ncnc2[nH]cnc12)c1nc2cccc(F)c2c(=O)n1-c1ccccc1 [Idelalisib] + CC(C)C[C@H](NC(=O)[C@H](Cc1ccccc1)NC(=O)c1cnccn1)B(O)O [Bortezomib] (partner 0.002 µM)
Procedure, shortened: (§1)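 Relative viability is defined as nuclei in treated wells over nuclei in vehicle wells. Duplicate plates were run and medians reported. Lung cancer cell lines in 1536-well plates were dosed by pin tool one day after seeding, with one drug or with a fixed anchor-drug dose plus five library-drug doses (not always all listed) in √10 steps, and nuclei were counted after 5 days.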

Idelalisib + Navitoclax = compound: CC[C@H](Nc1ncnc2[nH]cnc12)c1nc2cccc(F)c2c(=O)n1-c1ccccc1 [Idelalisib] + CC1(C)CCC(c2ccc(Cl)cc2)=C(CN2CCN(c3ccc(C(=O)NS(=O)(=O)c4ccc(N[C@H](CCN5CCOCC5)CSc5ccccc5)c(S(=O)(=O)C(F)(F)F)c4)cc3)CC2)C1 [Navitoclax] (partner 0.5 µM)
Procedure, shortened: as §1

Pemetrexed + Crizotinib = compound: Nc1nc2[nH]cc(CCc3ccc(C(=O)N[C@@H](CCC(=O)O)C(=O)O)cc3)c2c(=O)[nH]1 [Pemetrexed] + C[C@@H](Oc1cc(-c2cnn(C3CCNCC3)c2)cnc1N)c1c(Cl)ccc(F)c1Cl [Crizotinib] (partner 1 µM)
Procedure, shortened: as §1

Idelalisib + Linsitinib = compound: CC[C@H](Nc1ncnc2[nH]cnc12)c1nc2cccc(F)c2c(=O)n1-c1ccccc1 [Idelalisib] + C[C@]1(O)C[C@@H](c2nc(-c3ccc4ccc(-c5ccccc5)nc4c3)c3c(N)nccn32)C1 [Linsitinib] (partner 1 µM)
Procedure, shortened: as §1

Cell Line | relative viability (Idelalisib + Bortezomib; first compound 0.04 µM) | relative viability (Idelalisib + Bortezomib; first compound 0.1265 µM) | relative viability (Idelalisib + Bortezomib; first compound 0.4 µM) | relative viability (Idelalisib + Bortezomib; first compound 1.265 µM) | relative viability (Idelalisib + Bortezomib; first compound 4 µM) | relative viability (Idelalisib + Navitoclax; first compound 0.04 µM) | relative viability (Idelalisib + Navitoclax; first compound 0.1265 µM) | relative viability (Idelalisib + Navitoclax; first compound 0.4 µM) | relative viability (Idelalisib + Navitoclax; first compound 1.265 µM) | relative viability (Idelalisib + Navitoclax; first compound 4 µM) | relative viability (Pemetrexed + Crizotinib; first compound 0.002 µM) | relative viability (Pemetrexed + Crizotinib; first compound 0.006325 µM) | relative viability (Pemetrexed + Crizotinib; first compound 0.02 µM) | relative viability (Pemetrexed + Crizotinib; first compound 0.06325 µM) | relative viability (Pemetrexed + Crizotinib; first compound 0.2 µM) | relative viability (Idelalisib + Linsitinib; first compound 0.04 µM) | relative viability (Idelalisib + Linsitinib; first compound 0.1265 µM) | relative viability (Idelalisib + Linsitinib; first compound 0.4 µM) | relative viability (Idelalisib + Linsitinib; first compound 1.265 µM) | relative viability (Idelalisib + Linsitinib; first compound 4 µM)
201T | 1.1 | 1.07 | 1.1 | 1.13 | 1.08 | 1.17 | 1.13 | 1.25 | 1.24 | 1.1 | 0.941 | 1.03 | 1.05 | 1.07 | 0.999 | 1.09 | 1.02 | 0.937 | 0.933 | 0.926
A549 |  |  |  |  |  | 1.5 | 1.23 | 1.22 | 1.33 | 1.02 | 0.672 | 0.653 | 0.971 | 0.761 | 0.78 | 0.53 | 0.544 | 0.416 | 0.589 | 0.446
A-427 | 1.03 | 0.903 | 0.883 | 1.05 | 0.913 | 0.939 | 0.91 | 1.01 | 1.06 | 0.811 | 0.905 | 0.894 | 0.953 | 0.936 | 0.884 | 1.08 | 0.896 | 1.08 | 1.13 | 1.05
ABC-1 | 0.327 | 0.243 | 0.309 | 0.326 | 0.288 |  |  |  |  |  | 0.997 | 1.2 | 1.18 | 1 | 1.05 | 0.765 | 0.698 | 0.827 | 0.651 | 0.689
BEN | 0.985 | 0.709 | 0.756 | 0.803 | 0.732 | 0.0556 | 0.0685 | 0.0581 | 0.0746 | 0.0521 | 0.992 | 0.859 | 0.896 | 0.787 | 0.715 | 0.908 | 0.935 | 0.706 | 0.931 | 0.696
CAL-12T | 1.08 | 1.12 | 0.856 | 1.24 | 0.936 | 1.24 | 1.32 | 1.14 | 1.29 | 1.06 | 0.647 | 0.67 | 0.971 | 0.65 | 0.643 | 0.823 | 0.906 | 0.733 | 0.822 | 0.584
COR-L23 | 0.874 | 1.01 | 0.947 | 1.22 | 0.956 | 1.07 | 0.965 | 1.05 | 1.11 | 1.02 | 0.589 | 0.631 | 0.636 | 0.26 | 0.14 | 1 | 1.04 | 0.745 | 0.822 | 0.864
COR-L 105 | 0.906 | 0.92 | 0.53 | 1.02 | 0.713 | 0.794 | 1.04 | 0.805 | 0.893 | 0.52 | 0.78 | 0.75 | 0.895 | 0.88 | 0.75 | 1.05 | 0.83 | 0.793 | 0.806 | 0.595
Calu-6 | 1.13 | 0.991 | 0.937 | 1.02 | 1.07 | 0.987 | 0.938 | 0.755 | 0.822 | 0.776 | 0.814 | 0.754 | 0.922 | 0.72 | 0.68 | 1.06 | 1 | 0.889 | 0.942 | 0.93
ChaGo-K-1 | 1.09 | 0.945 | 1.01 | 1.04 | 1.17 | 1.03 | 1.01 | 1.12 | 1.09 | 1.14 | 1.15 | 1 | 0.969 | 0.366 | 0.344 |  |  |  |  | 
EBC-1 | 0.646 | 0.603 | 0.587 | 0.505 | 0.444 | 0.413 | 0.409 | 0.359 | 0.442 | 0.212 | 0.175 | 0.174 | 0.209 | 0.165 | 0.183 | 0.762 | 1.03 | 0.907 | 0.84 | 0.637
EKVX | 1.1 | 0.986 | 1.01 | 0.87 | 0.808 | 0.863 | 0.914 | 0.876 | 0.807 | 0.853 | 0.816 | 0.841 | 0.907 | 0.856 | 0.508 | 0.832 | 0.97 | 0.849 | 0.724 | 0.758
EMC-BAC-2 | 1.12 | 1.15 | 1.05 | 1.13 | 1.04 | 1.13 | 1.2 | 1.12 | 1.21 | 1.06 | 0.76 | 0.639 | 0.831 | 0.803 | 0.741 | 0.868 | 0.8 | 0.757 | 0.818 | 0.748
EPLC-272H | 0.904 | 0.858 | 1.05 | 0.935 | 0.851 | 1.08 | 1.14 | 1 | 1 | 0.959 | 0.781 | 0.913 | 1.07 | 0.981 | 0.853 | 1.49 | 0.996 | 0.977 | 1.13 | 0.976
H3255 | 0.882 | 0.888 | 0.807 | 0.807 | 0.829 | 0.617 | 0.513 | 0.506 | 0.415 | 0.38 |  | 0.952 | 0.926 | 0.864 | 0.608 | 0.959 | 1.01 | 0.829 | 0.857 | 0.801
HARA | 1.27 | 1.02 | 1.08 | 1.2 | 1.1 | 1.2 | 1.11 | 1.17 | 1.16 | 1.09 | 1.27 | 1.02 | 1.03 | 0.98 | 0.216 | 1.21 | 0.911 | 0.869 | 0.887 | 0.936

Cell Line | relative viability (Idelalisib + Bortezomib; first compound 0.04 µM) | relative viability (Idelalisib + Bortezomib; first compound 0.1265 µM) | relative viability (Idelalisib + Bortezomib; first compound 0.4 µM) | relative viability (Idelalisib + Bortezomib; first compound 1.265 µM) | relative viability (Idelalisib + Bortezomib; first compound 4 µM) | relative viability (Idelalisib + Navitoclax; first compound 0.04 µM) | relative viability (Idelalisib + Navitoclax; first compound 0.1265 µM) | relative viability (Idelalisib + Navitoclax; first compound 0.4 µM) | relative viability (Idelalisib + Navitoclax; first compound 1.265 µM) | relative viability (Idelalisib + Navitoclax; first compound 4 µM) | relative viability (Pemetrexed + Crizotinib; first compound 0.002 µM) | relative viability (Pemetrexed + Crizotinib; first compound 0.006325 µM) | relative viability (Pemetrexed + Crizotinib; first compound 0.02 µM) | relative viability (Pemetrexed + Crizotinib; first compound 0.06325 µM) | relative viability (Pemetrexed + Crizotinib; first compound 0.2 µM) | relative viability (Idelalisib + Linsitinib; first compound 0.04 µM) | relative viability (Idelalisib + Linsitinib; first compound 0.1265 µM) | relative viability (Idelalisib + Linsitinib; first compound 0.4 µM) | relative viability (Idelalisib + Linsitinib; first compound 1.265 µM) | relative viability (Idelalisib + Linsitinib; first compound 4 µM)
HCC-15 | 0.998 | 1.11 | 0.899 | 1.1 | 1.02 | 0.692 | 0.712 | 0.67 | 0.699 | 0.591 | 0.747 | 0.824 | 0.883 | 0.775 | 0.473 | 0.909 | 0.866 | 0.857 | 0.89 | 0.873
HCC-44 | 0.825 | 0.946 | 0.908 | 0.984 | 0.825 | 1.01 | 0.925 | 0.871 | 1.07 | 0.927 | 0.758 | 0.775 | 0.84 | 0.847 | 0.574 | 0.662 | 0.65 | 0.596 | 0.476 | 0.584
HCC-78 | 0.365 | 0.423 |  | 0.46 | 0.266 | 0.762 | 0.648 | 0.682 | 0.797 | 0.505 |  | 0.304 | 0.337 | 0.25 | 0.197 | 0.254 | 0.514 | 0.346 | 0.45 | 0.226
LCLC-103H | 1.07 | 1.24 | 1.04 | 1.04 | 0.911 |  |  |  |  |  | 0.94 | 1.01 | 1.07 | 1.08 | 1.07 | 1.11 | 0.948 | 0.886 | 1.05 | 0.704
LK-2 |  |  |  |  |  | 0.99 | 0.835 |  | 1.02 | 0.729 |  | 0.252 | 0.221 | 0.249 | 0.247 | 0.531 | 0.418 | 0.5 | 0.518 | 0.419
NCI-H358 |  |  |  |  |  |  |  |  |  |  | 0.555 | 0.524 | 0.558 | 0.287 | 0.179 | 0.805 | 0.794 | 0.638 | 0.64 | 0.637
NCI-H650 | 0.693 | 0.998 | 0.735 | 1.13 | 0.662 |  |  |  |  |  | 0.698 | 0.725 | 0.66 | 0.762 | 0.696 | 0.934 | 0.981 | 0.789 | 0.798 | 0.775
NCI-H661 | 0.679 | 0.658 | 0.496 | 0.661 | 0.628 |  |  |  |  |  | 1.06 | 1.03 | 0.949 |  | 0.944 | 0.588 | 0.551 | 0.373 | 0.389 | 0.458
NCI-H1395 |  |  |  |  |  | 1.53 | 1.11 | 1.05 | 1.04 | 0.982 |  |  |  |  |  | 1.15 | 1.22 | 0.92 | 0.82 | 0.77
NCI-H1563 | 0.932 | 0.858 | 0.696 | 0.864 | 0.681 |  |  |  |  |  | 0.946 | 0.837 | 0.878 | 0.911 | 0.938 | 1.16 | 1.29 | 1.07 | 1.15 | 0.832
NCI-H1650 | 0.208 | 0.19 | 0.239 | 0.208 | 0.202 | 1.15 | 1.39 | 1.08 | 1.15 | 0.748 | 0.971 | 0.902 | 0.939 | 0.689 | 0.332 |  |  |  |  | 
NCI-H1793 |  |  |  |  |  | 0.379 | 0.462 | 0.259 | 0.346 | 0.22 |  |  |  |  |  | 1.02 | 0.852 | 0.505 | 0.797 | 0.582
NCI-H1944 |  |  |  |  |  | 1.03 | 1.02 | 1.07 | 0.923 | 0.841 | 0.911 | 1.02 | 1.19 | 1.11 | 1 | 1.19 | 1.06 | 1.06 | 1.14 | 0.808
NCI-H2170 |  |  |  |  |  | 0.665 | 0.613 | 0.524 | 0.598 | 0.509 | 1.3 | 1.03 | 1.1 | 1.2 | 1.09 |  |  |  |  | 
SK-MES-1 |  |  |  |  |  | 0.995 | 1.41 | 1.12 | 1.08 | 0.867 | 1.06 | 0.938 | 0.99 | 1.01 | 0.832 | 1.02 | 0.984 | 0.934 | 0.855 | 0.703
